# Like-named read-outs stand apart in the source and are kept apart here.
# Experiments:
# Cellules T = test: Proliferation of mouse T cells (3H-thymidine incorporation); assay type: cell-based, souris; details: for inhibition at 200 µg/mL: T-cell, read-out: pourcentage d'augmentation (+) ou d'inhibition (-) de la prolifération
# Description: Les anticorps utilisés sont des anticorps monoclonaux (AM) naturels (N5-12, N5-17, MO-1, 62-1, D-23) et proviennent d'hybridomes préparés par fusion des cellules de rate de souris n'ayant reçu aucune immunisation au préalable ni aucune stimulation mitogénique, avec le myélome de souris X63-Ag8. Les hybridomes TNP11 et TNP9 proviennent de fusion des cellules de rate de souris immunisées avec du Ficoll-TNP. Ils ont été maintenus en culture dans le milieu RPMI complet contenant 10% de sérum de veau foetal. Les hybridomes ont été injectés à des souris Balb/c préalablement traitées au pristane dans le but d'obtenir des ascites. Les AM ont été utilisés en tant que surnageants de culture ou en tant qu'ascites ou après isolement par chromatographie d'affinité sur une colonne de DNP-Sépharose. Ces anticorps ont été testés par test immunoenzymatique sur différents antigènes immobilisés sur des plaques de polystyrène et révélés par un anticorps anti-Ig de souris couplé à la β-galactosidase.
# Le TNP a été couplé à la sérumalbumine bovine (BSA) par la méthode de Little & Eisen : 1ml de BSA à 20mg/ml dans le tampon carbonate-bicarbonate, 0,1M, pH 9,5, est ajouté à 1ml d'une solution d'acide trinitrobenzène sulfonique à 2 mg/ml dans le même tampon. La réaction est arrêtée après 30 à 120 minutes selon la substitution voulue par élimination de l'excès de réactifs sur échangeur d'ions (Dowex 1 x 4) puis dialyse. Des préparations de BSA substituée avec soit 14 ou 30 molécules de TNP par molécule de BSA (TNP₁₄-BSA ou TNP₃₀-BSA) ont été utilisées.
# Le DNP-Glycine (DNP-Gly) et le DNP-Lysine (DNP-Lys) proviennent des Laboratoires Sigma et sont solubilisés directement dans le milieu de culture.
# Les cellules proviennent de rate ou de thymus de souris. Les souris sont tuées par dislocation cervicale et leur rate ou leur thymus prélevé stérilement sont déposés dans du milieu RPMI. Les cellules sont dissociées, lavées une fois avec du milieu puis les globules rouges sont lysés au chlorure d'ammonium (0,9%) pendant 1 minute à froid puis les cellules sont relavées dans le milieu complet.
# Les sous-populations de cellules B ou T sont ensuite séparées comme suit : • Sous-population T : les cellules T sont obtenues à partir de la population de cellules de la rate par élimination des cellules portant des Ig à leur surface (sous-population B) sur des anticorps anti-Ig de souris immobilisés soit sur des billes magnétiques (Magnogel)® soit sur des boites de Pétri. • Sous-population B : les cellules B sont obtenues après détachement mécanique des supports dur lesquels elles étaient fixées par l'intermédiaire des anticorps anti-Ig (après l'isolement des cellules T), ou après élimination de la sous-population des cellules T de la population totale des cellules de rate par un traitement avec un anticorps anti-cellules T suivi de complément de cobaye. • Thymocytes : les thymocytes sont dissociés dans le RPMI et les cellules isolées sont lavées dans le milieu complet avant d'être mises en culture.
# Le milieu de culture utilisé est du RPMI 1640 contenant du sérum de veau foetal (5%), du pyruvate de sodium (1mM), de la L-glutamine (1mM), du 2-mercaptoethanol (0,05 mM), de la pénicilline (100»g/ml) et de la streptomycine (50»g/ml).
# 2x10⁵ cellules de chaque population cellulaire ou 4x10⁵ de cellules de rate non fractionnées sont distribuées sous un volume final de 200»l dans des boîtes de culture de 96 puits à fond plat en présence ou non des différents stimulateurs (ou mitogènes)(40»g/ml de lipopolysaccharide W Salmonella typhosa 2»g/ml de concanavaline A, ou des surnageants de culture contenant les anticorps monoclonaux à différentes dilutions ou une solution de TNP-BSA à des concentrations finales allant de 200ng à 200»g/ml). Les cultures sont effectuées pendant 48 à 96 heures à 37°C dans une atmosphère de 5% de CO2.
# Six à huit heures avant la fin de la culture, 100»l de surnageant sont prélevés de chaque puits de culture afin d'être testés quant à leur contenu en anticorps. […]
# [1] = test system: HVE (Herpes Virus Eidolon); test: Plaque method, neutralisation of HVE by coupled NP (TCC31 cells); assay type: cell-based
# Description: L'effet des NP couplés (TNP-BSA, DNP-Glycine) a été évalué par la méthode des plages, comme pour le virus de la chorioméningite lymphocytaire dans l'exemple I. L'effet neutralisant des NP couplés a été évalué sur les virus enveloppés ou non enveloppés suivants :
# C'est un virus de l'herpès à double brin d'ADN que l'on cultive sur des cellules TCC31 de souris. Les résultats sont observés après 2 Jours de culture.
# Pour tous les virus testés, les dilutions des virus donnaient 50 plages/cupule.
# [2] = 0,7 (µg/ml), conA* (mitogène ajouté après 48 heures)
# [3] = 3 (µg/ml), conA* (mitogène ajouté après 48 heures)
# [4] = 12 (µg/ml), conA* (mitogène ajouté après 48 heures)
# [5] = 50 (µg/ml), conA* (mitogène ajouté après 48 heures)
# [6] = 200µg/ml, conA* (mitogène ajouté après 48 heures)
molecule,measurement,setting,value
"O=C(O)CNc1ccc([N+](=O)[O-])cc1[N+](=O)[O-] [DNP-glycine, DNP-Glycine]",pourcentage d'augmentation (+) ou d'inhibition (-) de la prolifération,"Cellules T; 0,7 (µg/ml), M (milieu seul)",+50%
same,pourcentage d'augmentation (+) ou d'inhibition (-) de la prolifération,Cellules T; [2],0%
same,pourcentage d'augmentation (+) ou d'inhibition (-) de la prolifération,"Cellules T; 3 (µg/ml), M (milieu seul)",0%
same,pourcentage d'augmentation (+) ou d'inhibition (-) de la prolifération,Cellules T; [3],-5%
same,pourcentage d'augmentation (+) ou d'inhibition (-) de la prolifération,"Cellules T; 12 (µg/ml), M (milieu seul)",0%
same,pourcentage d'augmentation (+) ou d'inhibition (-) de la prolifération,Cellules T; [4],-4%
same,pourcentage d'augmentation (+) ou d'inhibition (-) de la prolifération,"Cellules T; 50 (µg/ml), M (milieu seul)",+30%
same,pourcentage d'augmentation (+) ou d'inhibition (-) de la prolifération,Cellules T; [5],-15%
same,inhibition at 200 µg/mL,"Cellules T; 200µg/ml, M (milieu seul)",4%
same,inhibition at 200 µg/mL,Cellules T; [6],-45%
same,inhibition at 300 µg/mL,"[1]; 0,3 mg/ml",48%
same,inhibition at 600 µg/mL,"[1]; 0,6 mg/ml",50%
same,inhibition at 70 µg/mL,"[1]; 0,07 mg/ml",28%
same,inhibition at 150 µg/mL,"[1]; 0,15 mg/ml",40%
same,inhibition at 1200 µg/mL,"[1]; 1,2 mg/ml",57%
same,inhibition at 2400 µg/mL,"[1]; 2,4 mg/ml",92%
same,minimal effective concentration,"[1]; 48 h, lowest concentration stated as seroneutralising, virus HVE, read-out: peut séroneutraliser le virus jusqu'à une concentration de",600 µg/mL
TNP-BSA,pourcentage d'augmentation (+) ou d'inhibition (-) de la prolifération,"Cellules T; 0,7 (µg/ml), M (milieu seul)",0%
same,pourcentage d'augmentation (+) ou d'inhibition (-) de la prolifération,Cellules T; [2],-50%
same,pourcentage d'augmentation (+) ou d'inhibition (-) de la prolifération,"Cellules T; 200µg/ml, M (milieu seul)",+30%
same,pourcentage d'augmentation (+) ou d'inhibition (-) de la prolifération,Cellules T; [6],-50%
same,pourcentage d'augmentation (+) ou d'inhibition (-) de la prolifération,"Cellules T; 3 (µg/ml), M (milieu seul)",0%
same,pourcentage d'augmentation (+) ou d'inhibition (-) de la prolifération,Cellules T; [3],-40%
same,pourcentage d'augmentation (+) ou d'inhibition (-) de la prolifération,"Cellules T; 12 (µg/ml), M (milieu seul)",+20%
same,pourcentage d'augmentation (+) ou d'inhibition (-) de la prolifération,Cellules T; [4],-20%
same,pourcentage d'augmentation (+) ou d'inhibition (-) de la prolifération,"Cellules T; 50 (µg/ml), M (milieu seul)",+18%
same,pourcentage d'augmentation (+) ou d'inhibition (-) de la prolifération,Cellules T; [5],-25%
same,% Inhibition,"[1]; 0,03 mg/ml",0%
same,% Inhibition,"[1]; 0,5 mg/ml",55%
same,% Inhibition,"[1]; 0,06 mg/ml",5%
same,% Inhibition,"[1]; 0,12 mg/ml",16%
same,% Inhibition,"[1]; 0,25 mg/ml",35%
same,% Inhibition,"[1]; 1,0 mg/ml",79%

# Reference: EP0316212B1 (priority 1987, dated 1989)
